From US20240369551A1 (priority 2021, published 2024)
Ends that are not written are not given here.

System: COVID19 anti-S1 IgG
Assay: UV-vis aggregation test of peptide-coated nanoparticles (Examples 1, 6, 7, 8)
Type: binding
Settings: silver nanoparticles (AgNP, 10 nm), streptavidin-biotin

## S14P5-Ag: S14P5 epitope conjugated onto silver nanoparticles (AgNP, 10 nm) through the streptavidin-biotin approach (TESNKKFLPFQQFGRDIA; also: conjugated to silver nanoparticles via streptavidin-biotin)
  response upon introduction of COV19 anti-S1 IgGs: visible nanoparticle precipitation
